This is an account of results in ChEMBL document CHEMBL1770074, “Syntheses and characterization of novel oxoisoaporphine derivatives as dual inhibitors for cholinesterases and amyloid beta aggregation” (Eur J Med Chem, 2011).

One test concerns SH-SY5Y. Briefly: cells. The settings on record: Homo sapiens, 48 h.
A short description of test [1]: Inhibition of amyloid beta (1 to 42) aggregation assessed as inhibition of fibril formation at 10 uM by thioflavin-T fluorescent dye assay.
For the next test, the target named is Acetylcholinesterase (Electrophorus electricus, UniProt O42275).
Another test has as its target Cholinesterase (Equus caballus, UniProt P81908).

SMILES strings stand for the structures.

Sequence of Cholinesterase (P81908 whole entry): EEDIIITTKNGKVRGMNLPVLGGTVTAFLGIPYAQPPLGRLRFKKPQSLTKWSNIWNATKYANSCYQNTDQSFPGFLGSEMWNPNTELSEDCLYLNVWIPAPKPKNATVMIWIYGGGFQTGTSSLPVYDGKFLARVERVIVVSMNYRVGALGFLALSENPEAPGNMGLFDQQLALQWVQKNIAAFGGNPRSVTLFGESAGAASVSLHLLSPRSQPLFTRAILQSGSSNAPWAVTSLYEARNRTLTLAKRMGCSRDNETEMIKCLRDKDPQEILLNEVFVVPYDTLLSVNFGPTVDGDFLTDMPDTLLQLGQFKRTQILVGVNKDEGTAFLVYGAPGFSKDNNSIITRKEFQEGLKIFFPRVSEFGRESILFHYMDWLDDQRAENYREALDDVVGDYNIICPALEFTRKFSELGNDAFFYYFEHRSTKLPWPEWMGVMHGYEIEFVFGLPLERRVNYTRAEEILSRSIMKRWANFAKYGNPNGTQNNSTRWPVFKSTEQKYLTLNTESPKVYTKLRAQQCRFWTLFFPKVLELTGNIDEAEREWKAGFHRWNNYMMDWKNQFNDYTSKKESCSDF
Sequence of Acetylcholinesterase (O42275 whole entry): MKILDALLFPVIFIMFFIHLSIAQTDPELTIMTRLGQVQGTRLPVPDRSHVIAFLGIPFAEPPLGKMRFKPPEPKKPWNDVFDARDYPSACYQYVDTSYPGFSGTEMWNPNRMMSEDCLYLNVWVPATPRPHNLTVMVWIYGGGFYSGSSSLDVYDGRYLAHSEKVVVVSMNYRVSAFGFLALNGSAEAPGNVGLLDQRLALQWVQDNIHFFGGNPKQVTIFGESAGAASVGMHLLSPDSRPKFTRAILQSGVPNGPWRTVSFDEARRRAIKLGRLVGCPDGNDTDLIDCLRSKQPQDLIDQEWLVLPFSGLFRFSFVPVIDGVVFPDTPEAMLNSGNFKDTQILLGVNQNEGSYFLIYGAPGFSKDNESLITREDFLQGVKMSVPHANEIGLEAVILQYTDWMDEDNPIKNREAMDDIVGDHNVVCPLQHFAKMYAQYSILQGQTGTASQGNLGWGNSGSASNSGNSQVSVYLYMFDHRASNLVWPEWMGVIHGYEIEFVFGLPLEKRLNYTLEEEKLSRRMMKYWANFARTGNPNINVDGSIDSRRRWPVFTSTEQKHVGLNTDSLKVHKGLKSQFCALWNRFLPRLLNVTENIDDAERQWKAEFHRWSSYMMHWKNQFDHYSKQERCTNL
Description for Acetylcholinesterase: Inhibition of electric eel AChE by Ellman's method
Description for SH-SY5Y: Cytotoxicity against human SH-SY5Y cells assessed as cell viability after 48 hrs by MTT assay

Regarding `O=C(CN1CCCC1)Nc1ccc2c(c1)C(=O)c1cccc3ccnc-2c13`, in the test with SH-SY5Y, the IC50 (in general, the point on the concentration scale where inhibition reaches its midpoint) came to 5.37 µM. Moreover, in test [1], the inhibition (as a rule, the share of the control response that was lost under treatment) was 45.4%.
Turning to `C[N+]1(CCOc2cnc3c4c(cccc24)C(=O)c2ccccc2-3)CCCC1`, the IC50 is over 25 µM in the test with SH-SY5Y, 0.145 µM against Acetylcholinesterase and 0.302 µM on Cholinesterase. The inhibition in test [1] amounted to 48.8%.
For `CCN(CC)CCCOc1ccc2c3c(nccc13)-c1ccccc1C2=O` the same measures were over 25 µM, 0.0343 µM, 2.7 µM and 14%.
As to `CN(C)CCOc1cnc2c3c(cccc13)C(=O)c1ccccc1-2`, the figures for the IC50 with SH-SY5Y, against Acetylcholinesterase and against Cholinesterase were 16.2 µM, 1.56 µM and 1.64 µM, respectively. In addition, the inhibition in test [1] worked out at 14.3%.
As for `O=C(CCN1CCCC1)Nc1ccc2c(c1)C(=O)c1cccc3ccnc-2c13`, in the test with SH-SY5Y, the IC50 was 4.57 µM. Besides, the inhibition in test [1] was 69.8%.
In the test with SH-SY5Y, `CN(C)CCC(=O)Nc1ccc2c(c1)C(=O)c1cccc3ccnc-2c13` showed an IC50 of 4.14 µM. In addition, the inhibition in test [1] is 69.8%.
Molecule `C[N+](C)(C)CCC(=O)Nc1ccc2c(c1)C(=O)c1cccc3ccnc-2c13` gave an IC50 with SH-SY5Y of over 25 µM. For the same molecule, the inhibition in test [1] is 80.1%.
`C[N+]1(CCC(=O)Nc2ccc3c(c2)C(=O)c2cccc4ccnc-3c24)CCCC1`: the IC50 with SH-SY5Y turned out to be 2.12 µM. In addition, the inhibition in test [1] worked out at 85.9%.
For the molecule `C[N+]1(CC(=O)Nc2ccc3c(c2)C(=O)c2cccc4ccnc-3c24)CCCC1`, in the test on SH-SY5Y, the IC50 is over 25 µM. Moreover, in test [1], the inhibition was found to be 52%.
In the case of `O=C1c2ccccc2-c2ncc(OCCN3CCCCC3)c3cccc1c23`, the IC50 is over 25 µM in the test with SH-SY5Y, 0.375 µM against Acetylcholinesterase and 0.723 µM against Cholinesterase. The inhibition in test [1] turned out to be 34.2%.
Regarding `C[N+](C)(C)CCOc1cnc2c3c(cccc13)C(=O)c1ccccc1-2`, the IC50 is over 25 µM in the test with SH-SY5Y, 0.933 µM against Acetylcholinesterase and 0.972 µM against Cholinesterase. Also, the inhibition in test [1] stood at 42%.
For the molecule `CN(C)CCCNc1ccc2c3c(nccc13)-c1ccccc1C2=O`, the IC50 in the test with SH-SY5Y is over 25 µM; at Acetylcholinesterase, 0.398 µM; against Cholinesterase it was 3.35 µM. The inhibition in test [1] stood at 57.6%.
Take `O=C1c2ccccc2-c2nccc3c(OCCN4CCCCC4)ccc1c23`: the half-maximal inhibitory concentration (IC50) was over 25 µM with SH-SY5Y, 0.088 µM at Acetylcholinesterase and 2.21 µM on Cholinesterase. In test [1], the inhibition came to 38.9%.
Turning to `CCN(CC)CCOc1cnc2c3c(cccc13)C(=O)c1ccccc1-2`, the IC50 in the test with SH-SY5Y turned out to be 9.21 µM; against Acetylcholinesterase, 0.7 µM; on Cholinesterase, 1.49 µM. For the same molecule, the inhibition in test [1] came out at 3.88%.
`C[N+](C)(C)CCCC(=O)Nc1ccc2c(c1)C(=O)c1cccc3ccnc-2c13` yielded an IC50 with SH-SY5Y of over 25 µM. In test [1], the inhibition worked out at 58.6%.
With `CN(C)CCCC(=O)Nc1ccc2c(c1)C(=O)c1cccc3ccnc-2c13`, the IC50 in the test with SH-SY5Y is 3.27 µM. In test [1], the inhibition was 65.2%.
Take `O=C1c2ccccc2-c2ncc(OCCN3CCCC3)c3cccc1c23`: the half-inhibitory concentration (IC50) was found to be 12 µM in the test on SH-SY5Y, 0.471 µM against Acetylcholinesterase and 0.79 µM on Cholinesterase. Besides, in test [1], the inhibition was 31.8%.
The molecule `CCN(CC)CCC(=O)Nc1ccc2c(c1)C(=O)c1cccc3ccnc-2c13` showed an IC50 in the test on SH-SY5Y of 3.94 µM. Moreover, the inhibition in test [1] came to 62.5%.
For `CN1CCN(CCCOc2ccc3c4c(nccc24)-c2ccccc2C3=O)CC1`, the half-inhibitory concentration (IC50) with SH-SY5Y was over 25 µM; on Acetylcholinesterase, 0.405 µM; against Cholinesterase, 5.5 µM. Also, the inhibition in test [1] was found to be 33.6%.
For the molecule `CC[N+](C)(CC)CCOc1cnc2c3c(cccc13)C(=O)c1ccccc1-2`, the IC50 in the test with SH-SY5Y is over 25 µM; at Acetylcholinesterase, 0.258 µM; at Cholinesterase, 0.708 µM. The inhibition in test [1] stood at 45.5%.
Consider `COc1cc(/C=C/C(=O)CC(=O)/C=C/c2ccc(O)c(OC)c2)ccc1O`, for which the inhibition in test [1] came to 33.3%.
As to `C[N+]1(CCOc2cnc3c4c(cccc24)C(=O)c2ccccc2-3)CCCCC1`, the values for the IC50 with SH-SY5Y, against Acetylcholinesterase and at Cholinesterase were over 25 µM, 0.095 µM and 0.255 µM, respectively. Moreover, in test [1], the inhibition was 50.9%.
For `CCN(CC)CCOc1ccc2c3c(nccc13)-c1ccccc1C2=O` the same measures were over 25 µM, 0.201 µM, 3.07 µM and 10.7%.
Molecule `CC[N+](C)(CC)CCC(=O)Nc1ccc2c(c1)C(=O)c1cccc3ccnc-2c13` yielded a half-inhibitory concentration (IC50) with SH-SY5Y of over 25 µM. Moreover, in test [1], the inhibition turned out to be 82.7%.
Turning to `O=C1c2ccccc2-c2nccc3c(OCCCN4CCCCC4)ccc1c23`, the IC50 is over 25 µM in the test on SH-SY5Y, 0.022 µM against Acetylcholinesterase and 0.905 µM on Cholinesterase. In addition, the inhibition in test [1] came to 40.1%.
With `CN1CCN(CCOc2ccc3c4c(nccc24)-c2ccccc2C3=O)CC1`, the results for the IC50 in the test with SH-SY5Y, against Acetylcholinesterase and on Cholinesterase were over 25 µM, 0.432 µM and 2.75 µM, respectively. The inhibition in test [1] came out at 43%.
